According to patent US9422238B2, “ICMT inhibitors” (National University of Singapore, priority 2012, dated 2016):
Read-outs that look alike come from different tables or passages of the source.

Columns and labels:
HepG2 cells = assay: Western blot of autophagy marker LC3-II; format: cell-based, human; conditions: HepG2, 24 h and 48 h
Description: (§1) MDA MB231, PC3 and HepG2 cells were seeded at 65 000 cells/mL per well in […] with DMEM (high glucose, supplemented with 10% FBS, 50 μg/mL penicillin, 50 μg/mL streptomycin) as media. Plates were incubated (24 h, 37° C., 5% CO2) for cells to attach and then treated with test compound (prepared in same media but with 5% FBS) for 24 h or 48 h. Final volume of DMSO per well was kept at 0.05% v/v. After the specified time, the supernatant was removed from the well by pipetting, the cell pellet was trypsinized, and pelleted by centrifugation (150 g, 5 min) and stored in −20° C. Samples were thawed and cells lysed by adding RIPA (radioimmunoprecipitation assay lysis buffer, Thermo Scientific, Rockland, Ill.) (50 μL), kept in ice for 30 min and sonicated for 1 min in an ice bath. Samples were centrifuged (13 000 g, 5 min, 4° C.) to remove cell debris. The supernatant was stored as aliquots at −80° C. and used when required. At the time of use, samples were thawed and protein content determined using the BCA® Protein Assay reagent (Thermo Scientific, Rockland, Ill.). The volume of the lysate was adjusted with deionized water to normalize protein content to 10-20 μg per mL. To this was added Laemmli buffer (4×) and heated to 100° C. for 5 minutes to denature the protein. The samples were resolved by 12% SDS-PAGE gel electrophoresis at 100V for 90 min. The resolved proteins were transferred to polyvinylidene difluoride (PVDF) membranes (Bio-Rad, Singapore) using transfer buffer at 100V for 120 min. Membranes were then treated with 5% blocking buffer (5% non-fat milk and 0.1% Tween-20 in PBS) and probed with the specific antibody (GAPDH, LC3) by incubating the membranes in blocking buffer containing the antibody at 4° C. overnight. After washing the membranes in PBS containing 0.1% Tween 20 (PBST), the membranes were probed with secondary antibodies (horseradish peroxidase anti mouse IgG, Pierce, USA) in blocking buffer at room temperature for 1 h. They were then washed with PBST and developed using an enhanced chemiluminescence procedure (Amersham ECL Advanced Western Blotting Detection Kit, GE, Healthcare, UK). Immunoblots were viewed using the ImageQuant® RT-ECL imager (GE Healthcare) and the image captured with the ImageQuant® TL software. Antibodies were obtained from the following sources: GAPDH (Cell signaling technology, USA), LC3 (Abgent, USA). Test compound was evaluated at 3 concentrations with 2 repeats for each concentration.

MDA MB 231 cells = assay: Western blot of autophagy marker LC3-II; format: cell-based, human; conditions: MDA MB 231, 24 h and 48 h
Description: as §1

PC3 cells [1] = assay: Western blot of autophagy marker LC3-II; format: cell-based, human; conditions: PC3, 24 h and 48 h
Description: as §1

PC3 cells [2] = assay: Immunofluorescence analysis of LC3 aggregation; format: cell-based, human; conditions: PC3, 48 h
Description: Cover slips were placed into the base of each well in a 24-well plate. PC3 cells were seeded at 10 000 cells/mL per well in media (DMEM Hi-glucose, 10% FBS, 50 μg/mL penicillin, 50 μg/mL streptomycin) and incubated for 24 h. After this time, cells were attached as a layer onto the exposed face of the cover slip. The media was carefully removed from the well without disrupting the cell layer on the cover slip. Test compound in DMEM (high glucose, 5% FBS) was added and incubated for 24 h or 48 h. DMSO concentration was kept at 0.05% per well, including control wells. At the end of the incubation period, media was removed, wells were washed thrice with PBS, followed by addition of chilled PBST (200 μL) per well for 10 minutes to permeabilize the cells. Cells were then fixed with 4% paraformaldehyde (300 μL), incubated for 15 minutes, and washed with cold PBS (3 times) to remove the fixing solution. To the cell layer fixed on the cover slip in the well was added 100 μL of anti-LC3 in PBST (1:1000). The plates were kept at 4° C. overnight after which each well was washed 3× with cold PBS. Rhodamine Red-X® secondary antibody (Jackson Immunoresearch Laboratories, West Grove, Pa.) was added, incubated (2 h, 25° C.) and removed by washing with PBS (3 times). The cover slips were carefully removed from the wells and mounted onto glass slides and sealed with nail polish. […]

[3] = system: HepG2, MIA PACA II, MDA-MB-231 and PC3 cells; assay: Cell viability on panel of 4 malignant cell lines; format: cell-based; conditions: Homo sapiens, MDA-MB-231, PC3, read-out: IC50 values, range over the malignant cell lines
Description: Determinations were made in duplicates or triplicates.
Cell viability was determined from the expression:
Human hepatocellular carcinoma HepG2 and human pancreatic cancer MIA PACA II cells were obtained from ATCC (Rockville, Md.). They were grown in DMEM (high glucose, Invitrogen) supplemented with 10% FBS, 50 μg/mL penicillin and 50 μg/mL streptomycin, 37° C., 5% CO2 until they reached 80-90% confluency, after which they were subcultured. Passage numbers were kept within 7-14 passages for both cell types.

Icmt = Icmt (Homo sapiens, UniProt O60725); conditions: background, cited from earlier work
Icmt, sequence (O60725 whole entry, species assumed): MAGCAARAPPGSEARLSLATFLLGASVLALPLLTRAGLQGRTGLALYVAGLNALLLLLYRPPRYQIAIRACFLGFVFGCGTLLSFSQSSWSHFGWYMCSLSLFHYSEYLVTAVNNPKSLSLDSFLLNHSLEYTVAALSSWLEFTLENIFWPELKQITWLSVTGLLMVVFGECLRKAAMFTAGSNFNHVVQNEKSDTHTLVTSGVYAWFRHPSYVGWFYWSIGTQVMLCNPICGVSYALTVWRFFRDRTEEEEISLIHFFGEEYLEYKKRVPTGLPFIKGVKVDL

Row | SMILES | LC3-II content (immunoblot) (HepG2 cells) | LC3-II content (immunoblot) (MDA MB 231 cells) | LC3-II content (immunoblot) (PC3 cells [1]) | LC3 aggregation (immunofluorescence) (PC3 cells [2]) | IC50 [3] | Ki (Icmt; read-out: Ki of initial reversible complex with the enzyme) | Ki (Icmt; time dependent inhibition, read-out: overall dissociation constant of EI* complex)
1 | CCCCCCCCn1cc(CN(CC)CC)c2cc(-c3cnc(N)nc3)ccc21 [Compound 8-12, 5-(3-Diethylaminomethyl-1-octyl-1H-indol-5-yl)-pyrimidin-2-ylamine] | LC3-II bands were detected in HepG2 cells treated only with 0.5 μM but not 0.25 μM | increased the content of LC3-II | increased the content of LC3-II | punctate LC3-positive (red) vacuoles were observed at 2.5 and 5 μM | 1600 to 2600 nM | – | –
2 | CCCCCCCCn1cc(CC(N)=O)c2cc(-c3cccc(C)c3)ccc21 [Cysmethynil, 2-[5-(3-methylphenyl)-1-octyl-1H-indolo-3-yl]acetamide, reference compound] | LC3II accumulation was evident after 48 hours but not 24 h | LC3-II accumulation was evident in MDA MB 231 cells treated with cysmethynil at 20 and 22.5 μM, but not at 17.5 μM | negligible LC3II were observed | – | – | 2390 nM | 110 nM
